Assay results published in US8124361B2, “Methods of screening for sweet taste modulators” (Givaudan SA, priority 2006, dated 2012).

Assays:
hCaSR = biological target: T1, hCaSR (Homo sapiens, UniProt P41180); experiment: Fluo-4 calcium assay in cells transfected with hCaSR; assay type: cell-based; details: transient transfection; calcium chloride 2 mM, sucralose 0.5 mM, aspartame 0.85 mM, perillartine 50 μM, cinnamonitrile 100 μM, cyclamate 1 mM, NDHC 0.33 mM; six replicates
T1 construct: full length cDNAs encoding the human CaSR (commercially available from Origene Inc., USA); host or cells: HEK293T cells stably expressing Galpha16gust44
T1 sequence (P41180 20-1078): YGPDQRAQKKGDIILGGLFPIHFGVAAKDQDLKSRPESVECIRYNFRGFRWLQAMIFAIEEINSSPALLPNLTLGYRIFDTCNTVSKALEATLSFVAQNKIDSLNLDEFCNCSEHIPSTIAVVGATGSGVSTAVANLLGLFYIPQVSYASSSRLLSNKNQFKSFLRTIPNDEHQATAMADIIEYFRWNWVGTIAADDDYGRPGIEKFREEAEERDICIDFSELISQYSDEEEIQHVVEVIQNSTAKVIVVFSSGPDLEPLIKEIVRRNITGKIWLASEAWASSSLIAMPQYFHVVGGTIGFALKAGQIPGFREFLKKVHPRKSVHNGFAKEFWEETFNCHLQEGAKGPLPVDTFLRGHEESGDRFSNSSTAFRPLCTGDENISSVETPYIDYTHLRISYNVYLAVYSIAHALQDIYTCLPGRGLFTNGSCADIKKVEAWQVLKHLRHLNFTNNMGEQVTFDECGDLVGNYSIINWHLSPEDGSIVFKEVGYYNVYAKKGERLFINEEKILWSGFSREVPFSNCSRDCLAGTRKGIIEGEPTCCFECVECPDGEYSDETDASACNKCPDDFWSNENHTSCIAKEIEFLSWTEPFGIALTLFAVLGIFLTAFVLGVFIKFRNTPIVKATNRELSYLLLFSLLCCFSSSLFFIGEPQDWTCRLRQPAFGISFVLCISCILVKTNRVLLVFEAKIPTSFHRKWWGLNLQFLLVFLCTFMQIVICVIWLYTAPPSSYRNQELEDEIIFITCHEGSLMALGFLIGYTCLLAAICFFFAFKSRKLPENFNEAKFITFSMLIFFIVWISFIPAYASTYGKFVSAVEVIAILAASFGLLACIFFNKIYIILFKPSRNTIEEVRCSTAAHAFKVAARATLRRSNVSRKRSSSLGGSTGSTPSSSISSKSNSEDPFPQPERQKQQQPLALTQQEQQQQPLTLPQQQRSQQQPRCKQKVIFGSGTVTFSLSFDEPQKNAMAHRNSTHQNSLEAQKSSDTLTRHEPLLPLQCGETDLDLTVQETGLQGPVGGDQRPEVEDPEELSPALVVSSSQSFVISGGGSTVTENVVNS

HEK293T/Gα16gust44 cells = experiment: Fluo-4 calcium assay, negative control cells expressing Gα16gust44 only (mock transfected); assay type: cell-based, human; details: calcium chloride 2 mM, sucralose 0.5 mM, aspartame 0.85 mM, perillartine 50 μM, cinnamonitrile 100 μM, cyclamate 1 mM, NDHC 0.33 mM; six replicates
[1] = system: sweet sensitive panelists; experiment: Paired comparison of sweetness versus sucrose, sensory panel; assay type: in vivo, human
[2] = system: sweet sensitive panelists; experiment: Ranking test of sweetness isointensity (R-index), sensory panel; assay type: in vivo, human; details: 60 ppm NarDHC in water; by interpolation
Experimental: (§1) The sensory evaluation was conducted using a ranking method. Samples at ambient temperature were randomly presented in 15 ml blind aliquots (unidentifiable by panelists). Panels consisted of 10 sweet sensitive subjects and samples were presented in 3 replications over 1 session. After tasting each sample, the mouth was rinsed thoroughly with water at ambient temperature prior to tasting the next sample. […] They were asked to rank the samples from low to high with respect to perceived sweet taste.
as §1, with “taste. […] From ranking-style sensory tests, a matrix of responses (see table X below) is constructed such that each cell contains the number of times a given sample was ranked at a particular location.” for “taste.”
Essentially, the R-index is a measure of difference between two samples. The R-index has a chance level of detection of 50%. […] The critical value is the statistically relevant value that the derived R-index must deviate from (i.e greater or less than) in order to be considered significant.

[3] = biological target: T2, transmembrane domains of TAS1R (Homo sapiens, UniProt Q7RTX0+Q8TE23, C757R); experiment: Identification of candidate sweetness enhancers that bind to the transmembrane domains; assay type: binding; details: identified by the applicants as candidate sweetness enhancers
T2 sequence (Q8TE23 20-839): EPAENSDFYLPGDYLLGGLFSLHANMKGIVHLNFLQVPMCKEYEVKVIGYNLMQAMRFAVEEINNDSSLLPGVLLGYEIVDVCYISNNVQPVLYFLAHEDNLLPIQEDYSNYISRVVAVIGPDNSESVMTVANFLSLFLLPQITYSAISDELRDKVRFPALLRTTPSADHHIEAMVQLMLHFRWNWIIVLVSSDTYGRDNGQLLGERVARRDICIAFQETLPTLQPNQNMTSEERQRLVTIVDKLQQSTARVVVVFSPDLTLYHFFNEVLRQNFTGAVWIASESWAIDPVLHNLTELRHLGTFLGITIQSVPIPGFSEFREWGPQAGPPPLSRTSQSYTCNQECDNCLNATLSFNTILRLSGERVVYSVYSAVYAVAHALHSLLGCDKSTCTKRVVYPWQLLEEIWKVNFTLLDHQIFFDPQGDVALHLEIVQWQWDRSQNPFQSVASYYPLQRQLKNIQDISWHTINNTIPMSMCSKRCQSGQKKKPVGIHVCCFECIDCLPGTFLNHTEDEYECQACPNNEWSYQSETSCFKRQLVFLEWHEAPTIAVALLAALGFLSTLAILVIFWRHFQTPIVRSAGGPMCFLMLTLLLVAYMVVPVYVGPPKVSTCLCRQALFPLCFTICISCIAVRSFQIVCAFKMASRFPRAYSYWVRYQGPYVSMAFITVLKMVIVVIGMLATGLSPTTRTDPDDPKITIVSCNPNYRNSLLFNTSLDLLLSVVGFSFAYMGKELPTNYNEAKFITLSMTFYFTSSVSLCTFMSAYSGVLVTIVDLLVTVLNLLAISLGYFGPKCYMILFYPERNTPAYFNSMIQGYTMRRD
T2 sequence (Q7RTX0 21-852 C757R): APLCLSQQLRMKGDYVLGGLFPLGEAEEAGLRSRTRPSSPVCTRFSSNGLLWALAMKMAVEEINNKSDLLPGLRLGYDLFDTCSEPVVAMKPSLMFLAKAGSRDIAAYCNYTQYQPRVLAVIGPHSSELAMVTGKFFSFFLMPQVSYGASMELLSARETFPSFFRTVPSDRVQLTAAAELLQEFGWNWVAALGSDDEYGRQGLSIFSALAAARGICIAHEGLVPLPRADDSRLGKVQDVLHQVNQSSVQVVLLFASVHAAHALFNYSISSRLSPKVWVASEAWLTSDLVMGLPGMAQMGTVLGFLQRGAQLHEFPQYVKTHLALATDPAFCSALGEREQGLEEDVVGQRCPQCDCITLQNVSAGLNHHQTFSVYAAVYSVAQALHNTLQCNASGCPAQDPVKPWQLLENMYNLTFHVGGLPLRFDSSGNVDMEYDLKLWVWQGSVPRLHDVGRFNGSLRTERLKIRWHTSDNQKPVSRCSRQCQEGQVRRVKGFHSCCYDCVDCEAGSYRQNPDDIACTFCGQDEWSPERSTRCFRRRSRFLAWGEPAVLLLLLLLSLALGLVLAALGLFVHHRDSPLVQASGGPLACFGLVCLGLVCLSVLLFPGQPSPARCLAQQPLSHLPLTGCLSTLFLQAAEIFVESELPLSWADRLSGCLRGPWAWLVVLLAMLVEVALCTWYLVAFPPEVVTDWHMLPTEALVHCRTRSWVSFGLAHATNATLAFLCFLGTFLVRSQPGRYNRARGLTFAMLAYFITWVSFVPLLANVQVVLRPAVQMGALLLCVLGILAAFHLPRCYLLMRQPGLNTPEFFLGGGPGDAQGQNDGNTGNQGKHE

Row | SMILES | hCaSR AVG (hCaSR) | Neg. control (mock transfection) AVG (HEK293T/Gα16gust44 cells) | binding to the transmembrane domains of TAS1R [3] | further results
1 | [Ca+2].[Cl-].[Cl-] [Calcium, calcium chloride] | 7610 RFU | 1570 RFU | – | –
2 | C[C@@H]1O[C@@H](O[C@H]2[C@H](Oc3cc(O)c(C(=O)CCc4ccc(O)cc4)c(O)c3)O[C@H](CO)[C@@H](O)[C@@H]2O)[C@H](O)[C@H](O)[C@H]1O [NarDHC, naringin dihydrochalcone] | – | – | bind to the transmembrane domains of TAS1R | Result of comparison ([1]; 45 ppm NarDHC in water vs 0% sucrose): weakly sweeter; Result of comparison ([1]; 45 ppm NarDHC in water vs 0.5% sucrose): isosweet; Result of comparison ([1]; 45 ppm NarDHC in water vs 1% sucrose): less sweet; Result of comparison ([1]; 50 ppm NarDHC in water vs 0.5% sucrose): notably sweeter; Result of comparison ([1]; 50 ppm NarDHC in water vs 1% sucrose): less sweet; Result of comparison ([1]; 55 ppm NarDHC in water vs 0.5% sucrose): notably sweeter; Result of comparison ([1]; 55 ppm NarDHC in water vs 1% sucrose): isosweet; Result of comparison ([1]; 60 ppm NarDHC in water vs 1% sucrose): notably sweeter; Result of comparison ([1]; 60 ppm NarDHC in water vs 1.5% sucrose): significantly less sweet; sweetness equivalent to sucrose (isointensity) [2]: about 1.25 % sucrose
3 | OC[C@H]1O[C@H](O[C@]2(CCl)O[C@H](CCl)[C@@H](O)[C@@H]2O)[C@H](O)[C@@H](O)[C@H]1Cl [Sucralose, 6-dichloro-1,6-dideoxy-β-D-fructo-furanosyl 4-chloro-4-deoxy-α-D-galactopyranoside] | 22 RFU | −186 RFU | – | –
4 | N#CC=Cc1ccccc1 [cinnamonitrile] | 197 RFU | −998 RFU | bind to the transmembrane domains of TAS1R | –
5 | C[C@H](CC[C@@H](O[C@@H]1O[C@H](CO[C@@H]2O[C@H](CO)[C@@H](O)[C@H](O)[C@H]2O)[C@@H](O)[C@H](O)[C@H]1O[C@@H]1O[C@H](CO)[C@@H](O)[C@H](O)[C@H]1O)C(C)(C)O)[C@H]1CC[C@@]2(C)[C@@H]3CC=C4[C@@H](CC[C@H](O[C@@H]5O[C@H](CO[C@@H]6O[C@H](CO)[C@@H](O)[C@H](O)[C@H]6O)[C@@H](O)[C@H](O)[C@H]5O)C4(C)C)[C@]3(C)[C@H](O)C[C@]12C [mogroside V] | – | – | bind to the transmembrane domains of TAS1R | –
6 | C=C1C[C@@]23CC[C@H]4[C@@](C)(CCC[C@@]4(C)C(=O)O[C@@H]4O[C@H](CO)[C@@H](O)[C@H](O)[C@H]4O)[C@@H]2CC[C@]1(O[C@@H]1O[C@H](CO)[C@@H](O)[C@H](O[C@@H]2O[C@H](CO)[C@@H](O)[C@H](O)[C@H]2O)[C@H]1O[C@@H]1O[C@H](CO)[C@@H](O)[C@H](O)[C@H]1O)C3 [rebaudioside A] | – | – | bind to the transmembrane domains of TAS1R | –
7 | C=C1C[C@@]23CC[C@H]4[C@@](C)(CCC[C@@]4(C)C(=O)O[C@@H]4O[C@H](CO)[C@@H](O)[C@H](O)[C@H]4O)[C@@H]2CC[C@]1(O[C@@H]1O[C@H](CO)[C@@H](O)[C@H](O)[C@H]1O)C3 [rubusoside] | – | – | bind to the transmembrane domains of TAS1R | –
8 | C=C1C[C@@]23CC[C@H]4[C@@](C)(CCC[C@@]4(C)C(=O)O[C@@H]4O[C@H](CO)[C@@H](O)[C@H](O)[C@H]4O)[C@@H]2CC[C@]1(O[C@@H]1O[C@H](CO)[C@@H](O)[C@H](O)[C@H]1O[C@@H]1O[C@H](CO)[C@@H](O)[C@H](O)[C@H]1O)C3 [stevioside] | – | – | bind to the transmembrane domains of TAS1R | –
